Measured values published in the supplement of paper PMC10307832.

Columns and labels:
Assay in all cases: relative viability (nuclei count vs DMSO), 5 days (fraction); higher = more cells survive
Idelalisib + Foretinib = compound: CC[C@H](Nc1ncnc2[nH]cnc12)c1nc2cccc(F)c2c(=O)n1-c1ccccc1 [Idelalisib] + COc1cc2c(Oc3ccc(NC(=O)C4(C(=O)Nc5ccc(F)cc5)CC4)cc3F)ccnc2cc1OCCCN1CCOCC1 [Foretinib] (partner 0.25 µM)
Summary of the method: (§1)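 Five library-drug doses in √10 steps were combined with a fixed anchor-drug dose, or a single drug was given alone, by pin tool to lung cancer cell lines in 1536-well plates the day after seeding. Nuclei were stained and counted after 5 days. Relative viability is the nuclei count in treated wells over that in vehicle wells, taken as the median of duplicate plates.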

Idelalisib + Phenformin = compound: CC[C@H](Nc1ncnc2[nH]cnc12)c1nc2cccc(F)c2c(=O)n1-c1ccccc1 [Idelalisib] + N=C(N)NC(=N)NCCc1ccccc1 [Phenformin] (partner 250 µM)
Summary of the method: as §1

Pemetrexed + Alpelisib = compound: Nc1nc2[nH]cc(CCc3ccc(C(=O)N[C@@H](CCC(=O)O)C(=O)O)cc3)c2c(=O)[nH]1 [Pemetrexed] + Cc1nc(NC(=O)N2CCC[C@H]2C(N)=O)sc1-c1ccnc(C(C)(C)C(F)(F)F)c1 [Alpelisib] (partner 2 µM)
Summary of the method: as §1

Pemetrexed + Phenformin = compound: Nc1nc2[nH]cc(CCc3ccc(C(=O)N[C@@H](CCC(=O)O)C(=O)O)cc3)c2c(=O)[nH]1 [Pemetrexed] + N=C(N)NC(=N)NCCc1ccccc1 [Phenformin] (partner 250 µM)
Summary of the method: as §1

| Cell Line | relative viability (Idelalisib + Foretinib; first compound 0.04 µM) | relative viability (Idelalisib + Foretinib; first compound 0.1265 µM) | relative viability (Idelalisib + Foretinib; first compound 0.4 µM) | relative viability (Idelalisib + Foretinib; first compound 1.265 µM) | relative viability (Idelalisib + Foretinib; first compound 4 µM) | relative viability (Idelalisib + Phenformin; first compound 0.04 µM) | relative viability (Idelalisib + Phenformin; first compound 0.1265 µM) | relative viability (Idelalisib + Phenformin; first compound 0.4 µM) | relative viability (Idelalisib + Phenformin; first compound 1.265 µM) | relative viability (Idelalisib + Phenformin; first compound 4 µM) | relative viability (Pemetrexed + Alpelisib; first compound 0.002 µM) | relative viability (Pemetrexed + Alpelisib; first compound 0.006325 µM) | relative viability (Pemetrexed + Alpelisib; first compound 0.02 µM) | relative viability (Pemetrexed + Alpelisib; first compound 0.06325 µM) | relative viability (Pemetrexed + Alpelisib; first compound 0.2 µM) | relative viability (Pemetrexed + Phenformin; first compound 0.002 µM) | relative viability (Pemetrexed + Phenformin; first compound 0.006325 µM) | relative viability (Pemetrexed + Phenformin; first compound 0.02 µM) | relative viability (Pemetrexed + Phenformin; first compound 0.06325 µM) | relative viability (Pemetrexed + Phenformin; first compound 0.2 µM) |
| --- | --- | --- | --- | --- | --- | --- | --- | --- | --- | --- | --- | --- | --- | --- | --- | --- | --- | --- | --- | --- |
| NCI-H1755 | 0.951 | 0.915 | 0.889 | 0.843 | 0.9 | 0.633 | 0.601 | 0.558 | 0.675 | 0.531 | 0.828 | 0.935 | 0.923 | 0.926 | 0.862 | 0.594 | 0.409 | 0.647 | 0.627 | 0.507 |
| NCI-H661 | 1.12 | 1.06 | 1.02 | 1.01 | 1.02 | 0.271 | 0.256 | 0.256 | 0.269 | 0.281 | 0.732 | 0.563 | 0.621 | 0.636 | 0.794 | 0.288 | 0.28 | 0.286 | 0.276 | 0.273 |
| NCI-H1944 | 1 | 0.877 | 0.752 | 0.804 | 0.759 | 0.237 | 0.204 | 0.158 | 0.187 | 0.175 | 0.674 | 0.751 | 0.869 | 0.789 | 0.766 | – | 0.229 | 0.207 | 0.189 | 0.189 |
| NCI-H23 | 1.2 | 1.1 | 0.766 | – | 0.859 | 0.713 | 0.845 | 0.792 | – | 0.776 | 0.666 | 0.532 | 0.741 | 0.503 | 0.601 | 0.747 | 0.758 | 0.809 | 0.804 | 0.828 |
| NCI-H522 | – | – | – | – | – | 0.675 | 0.66 | 0.641 | 0.761 | 0.634 | – | – | – | – | – | 0.739 | 0.593 | 0.77 | 0.692 | 0.583 |
| HCC-366 | 0.947 | 0.867 | 0.889 | 0.971 | 0.938 | 0.597 | 0.639 | 0.619 | 0.632 | 0.679 | 0.448 | 0.507 | 0.365 | 0.452 | 0.376 | 0.515 | 0.616 | 0.672 | 0.612 | 0.571 |
| EBC-1 | 0.0986 | 0.0952 | 0.0971 | 0.107 | 0.0962 | – | – | – | – | – | 0.747 | 0.848 | 0.939 | 0.836 | 0.518 | – | – | – | – | – |
| ChaGo-K-1 | 1.02 | 0.919 | 0.766 | 0.931 | 0.82 | 0.49 | 0.453 | 0.424 | 0.477 | 0.436 | – | – | – | – | – | 0.497 | 0.495 | 0.507 | 0.332 | 0.217 |
| LCLC-97TM1 | 1.1 | 0.961 | 0.877 | 1.03 | 0.776 | 0.43 | 0.434 | 0.267 | 0.592 | 0.453 | 0.265 | 0.2 | 0.257 | 0.173 | 0.237 | 0.432 | 0.392 | 0.466 | 0.44 | 0.396 |
| NCI-H1299 | 1.14 | 1.16 | 1.11 | 1.16 | 1.2 | – | – | – | – | – | 1.07 | 1.03 | 1.01 | 1.01 | 1.06 | – | – | – | – | – |
| EMC-BAC-2 | 0.972 | 0.988 | 0.963 | 0.868 | 0.963 | 0.564 | 0.517 | 0.478 | 0.506 | 0.524 | 0.795 | 0.676 | 0.801 | 0.738 | 0.693 | 0.481 | 0.523 | 0.615 | 0.58 | 0.423 |
| NCI-H1623 | 0.849 | 0.8 | 0.754 | 0.706 | 0.846 | 0.596 | 0.619 | 0.537 | 0.529 | 0.547 | – | – | – | – | – | 0.575 | 0.588 | 0.564 | 0.627 | 0.598 |
| NCI-H441 | 1.15 | 1.09 | 1.05 | 1.11 | 1.2 | 0.803 | 0.919 | 0.639 | 0.885 | 0.898 | 0.667 | 0.686 | 0.932 | 0.531 | 0.53 | 0.594 | 0.793 | 0.515 | 0.555 | 0.393 |
| LCLC-103H | 0.727 | 0.728 | 0.65 | 0.829 | 0.582 | 0.367 | 0.312 | 0.275 | 0.33 | 0.314 | 0.971 | 0.992 | 1.04 | 1.01 | 0.959 | 0.316 | 0.333 | 0.364 | 0.351 | 0.3 |
| HOP-62 | 1.15 | 1.05 | 1.15 | 1.15 | 1.1 | 0.558 | 0.656 | 0.589 | 0.672 | 0.654 | 0.842 | 0.868 | 0.896 | 0.847 | 0.957 | 0.567 | 0.675 | 0.659 | 0.716 | 0.611 |
| HCC-44 | – | – | – | – | – | 0.201 | 0.229 | 0.177 | 0.235 | 0.153 | 0.771 | 0.732 | 0.854 | 0.785 | 0.602 | 0.129 | 0.23 | 0.187 | 0.224 | 0.207 |
| IA-LM | 1.17 | 1.41 | 1.24 | 1.31 | 1.19 | – | – | – | – | – | 0.797 | 0.716 | 0.737 | 0.771 | 0.67 | – | – | – | – | – |
| Calu-6 | 0.895 | 0.909 | 0.844 | 0.894 | 0.767 | – | – | – | – | – | 0.995 | 1.01 | 1.05 | 0.918 | 0.954 | – | – | – | – | – |
| NCI-H1650 | 1.33 | 1.42 | 0.944 | 0.864 | 0.917 | 0.439 | 0.341 | 0.35 | 0.371 | 0.379 | – | – | – | – | – | 0.415 | 0.39 | 0.408 | 0.309 | 0.231 |
| NCI-H2342 | 1.02 | 1.11 | 0.886 | 0.896 | 0.729 | 0.597 | 0.584 | 0.514 | 0.614 | 0.482 | – | – | – | – | – | 0.501 | 0.6 | 0.526 | 0.54 | 0.618 |
